Laboratory results taken from ChEMBL document CHEMBL5257143, “Discovery of First-in-Class Small Molecule Inhibitors of Lymphocyte Activation Gene 3 (LAG-3)” (ACS Med Chem Lett, 2023).

Legend:
[1] = Inhibition of LAG-3/FGL1 (unknown origin) interaction incubated for 2 hrs by TR-FRET assay; set-up: species or system Homo sapiens
[2] = Inhibition of LAG-3-MHCII (unknown origin) interaction incubated for 2 hrs by TR-FRET assay; set-up: species or system Homo sapiens
[3] = test system: Jurkat T; test: (§1) Inhibition of LAG-3-MHCII interaction in human Jurkat T cells expressing human LAG-3/luciferase reporter co-cultured with MHCII antigen presenting cells assessed as increase in luminescence by Bio-Glo reagent based assay; type: cell-based
[4] = as §1; type: cell-based
[5] = Inhibition of LAG-3/FGL1 (unknown origin) interaction by ELISA analysis; set-up: species or system Homo sapiens
[6] = species: Homo sapiens; test: Inhibition of LAG-3-MHCII (unknown origin) interaction at 10 to 30 uM incubated for 2 hrs by TR-FRET assay relative to control; conditions: dose 10-30 µM

Cc1cc(C(=O)COc2ccccc2C(=O)Nc2ccccc2)c(C)[nH]1
IC50 [1]: > 50 µM | IC50 [2]: > 50 µM

CC(=O)Nc1ccccc1OCC(=O)c1cc(C)n(CCc2ccc(F)cc2)c1C
IC50 [1]: 32.7 µM | IC50 [2]: 28.4 µM

CCC(=O)c1ccc(OCC(=O)c2cc(C)n(Cc3ccco3)c2C)cc1
IC50 [1]: 28.7 µM | IC50 [2]: 20.4 µM

Cc1cc(C(=O)COc2ccc(NC(=O)c3ccco3)cc2)c(C)n1Cc1ccccc1
IC50 [1]: 6.52 µM | inhibition [3]: Dose-Dependent Effect | IC50 [4]: 6.95 µM | IC50 [2]: 4.21 µM

Cc1ccc(-n2c(C)cc(C(=O)COc3ccc(C(N)=O)cc3)c2C)cc1
IC50 [1]: 29.4 µM | IC50 [2]: 26.9 µM

CCCn1c(C)cc(C(=O)COc2ccc(NC(C)=O)cc2)c1C
IC50 [1]: > 50 µM | IC50 [2]: > 50 µM

Cc1cc(C(=O)COc2ccccc2C(=O)Nc2ccccc2)c(C)n1CC1CCCO1 (stereo not drawn)
IC50 [1]: 14.2 µM | IC50 [2]: 18.4 µM

Cc1ccc(-n2c(C)cc(C(=O)COc3ccc(NC(=O)c4ccc(C(C)(C)C)cc4)cc3)c2C)cc1
IC50 [1]: 18.2 µM | IC50 [2]: 19.3 µM

C=CCn1c(C)cc(C(=O)COc2ccccc2C(=O)Nc2ccccc2)c1C
IC50 [1]: > 50 µM | IC50 [2]: > 50 µM

CC(=O)Nc1cccc(OCC(=O)c2cc(C)n(-c3ccc(C)c(C)c3)c2C)c1
IC50 [1]: 25.5 µM | IC50 [2]: 31.4 µM

COCCCn1c(C)cc(C(=O)COc2ccc(NC(C)=O)cc2)c1C
IC50 [1]: > 50 µM | IC50 [2]: > 50 µM

COc1ccccc1C(=O)Nc1ccc(OCC(=O)c2cc(C)n(C)c2C)cc1
IC50 [1]: 35.4 µM | IC50 [2]: 25.7 µM

CCCn1c(C)cc(C(=O)COc2ccccc2NC(C)=O)c1C
IC50 [1]: > 50 µM | IC50 [2]: > 50 µM

Cc1cc(C(=O)COc2ccc(N3CCCC3=O)cc2)c(C)n1C1CC1
IC50 [1]: 20.4 µM | IC50 [2]: 17.2 µM

CC(=O)Nc1ccc(OCC(=O)c2cc(C)n(C(C)C)c2C)cc1
IC50 [1]: > 50 µM | IC50 [2]: > 50 µM

Cc1cc(C(=O)COc2ccc(C(N)=O)cc2)c(C)n1C
IC50 [1]: > 50 µM | IC50 [2]: > 50 µM

CC(=O)Nc1ccc(OCC(=O)c2cc(C)n(-c3ccccc3F)c2C)cc1
IC50 [1]: 29.4 µM | IC50 [2]: 21.3 µM

CC(=O)Nc1ccc(OCC(=O)c2cc(C)n(Cc3ccccc3)c2C)cc1
IC50 [1]: 20.4 µM | IC50 [2]: 18.3 µM

Cc1cc(C(=O)COc2ccc(NC(=O)c3ccco3)cc2)c(C)n1-c1ccccc1
IC50 [1]: 13.7 µM | IC50 [2]: 8.36 µM

Cc1cc(C(=O)COc2ccc(NC(=O)c3ccccc3)cc2)c(C)n1Cc1ccco1
IC50 [1]: 9.94 µM | IC50 [2]: 9.38 µM

CC(=O)Nc1ccc(OCC(=O)c2cc(C)n(-c3ccc(Cl)c(Cl)c3)c2C)cc1
IC50 [1]: 10.3 µM | IC50 [2]: 11.2 µM

Cc1cc(C(=O)COc2ccc(C(N)=O)cc2)c(C)n1CCc1ccc(F)cc1
IC50 [1]: 22.4 µM | IC50 [2]: 18.3 µM

Cc1cc(C(=O)COc2ccc(NC(=O)c3ccco3)cc2)c(C)n1C
IC50 [1]: 16.7 µM | IC50 [5]: 18.5 µM | inhibition [6]: > 90% | IC50 [2]: 14.8 µM

CC(=O)Nc1ccc(OCC(=O)c2cc(C)n(CCc3ccc(F)cc3)c2C)cc1
IC50 [1]: 21.4 µM | IC50 [2]: 28.4 µM

CC(=O)Nc1ccc(OCC(=O)c2cc(C)n(-c3ccc(OC(F)F)cc3)c2C)cc1
IC50 [1]: 16.5 µM | IC50 [2]: 12.4 µM

C=CCn1c(C)cc(C(=O)COc2ccc(NC(=O)c3cccc([N+](=O)[O-])c3)cc2)c1C
IC50 [1]: > 50 µM | IC50 [2]: > 50 µM

CC(=O)Nc1ccc(OCC(=O)c2cc(C)n(CCc3ccccc3)c2C)cc1
IC50 [1]: 28.5 µM | IC50 [2]: 23.4 µM
